Test results taken from patent publication US20230257429A1, “PEPTIDE ADJUVANT FOR ITS THERAPEUTIC APPLICATIONS IN VIRAL AND TUMOUR VACCINE DEVELOPMENT AND CANCER IMMUNOTHERAPY AND AUTOIMMUNE DISEASE DIAGNOSIS AND TREATMENTS” (National University of Singapore, priority 2020, published 2023).
Entries after “also recorded” stand apart in the source; their conditions may differ. Peptide text beside a SMILES is read from it.

Assays:
[1] = tested on: autologous CD4 and CD8 T cells; test: Antigen-loaded DC co-culture with autologous lymphocytes, proliferation; assay type: cell-based, human; settings: DC:T 1:5, 2 weeks co-culture, CellTrace Violet
Procedure: PBMC were isolated from healthy blood donors from which monocytes were isolated to culture DC and the remaining cells (mostly lymphocytes) were stored frozen as a source of autologous lymphocytes. DC were then incubated for 24 hr with P2+G, IPA1E2 or the IPA1E2-P2+G fusion polypeptide (SEQ ID NO: 58) in round bottom 96-well plates (5×10^4 cells/well) without adding additional adjuvants. The frozen lymphocytes were revived and labelled with CellTrace Violet (2.5 μM) for 10 min at 37° C. and then added to the DC wells at 2.5×10^5 cells/well (DC:T ratio=1:5). After 2 weeks of co-culture, the proliferation of CD4+ and CD8+ T cell and CD19+ B cell was analyzed by flow cytometry.

PBMC [2] = test: Peptide binding to and penetration of PBMC, flow cytometry; assay type: cell-based, human; settings: for CPP activity compared with NCL-P2: PBMC, peptide 200 μg/ml; for cell surface binding of peptide at 37° C.: PBMC gated for monocytes, B cells, T cells; for cell surface binding of peptide at 37° C. / intracellular peptide at 37° C.: 1 hr; for intracellular peptide at 4° C.: B cells and T cells, permeabilized; for intracellular peptide at 37° C.: permeabilized cells
Procedure: PBMC re-suspended in 100 μl macrophage serum free media (3×10^6/ml) were incubated with different peptides (200 μg/ml). PBMC (100 μl) were incubated with the peptides for 1 hr at 37° C. or 4° C. Cells were washed twice in 2% FBS/PBS and incubated with streptavidin-AF488 and Zombie (NIR) Fixable viability stain-APC-Cy7 for 30 min at 4° C. Cells were then fixed with 1% PFA for 30 min at room temperature and analysed using the Fortessa analyser (BD). In some experiments, PBMC were, after incubation with peptides, incubated with Zombie (NIR) Fixable viability stain (APC-Cy7) for 30 min at 4° C. Cells were then fixed and permeabilized with BD CYTOFIX/CYTOPERM™ Kit for 20 min at 4° C., and then incubated with streptavidin-AF488 for 30 min at 4° C. In some experiments, PBMC were, after incubation with the peptides, stained with fluorescent mouse antibodies specific for monocytes (CD14/BV711), T cells (CD3/PerCP-Cy5-5) and B cells (CD19/Pacific blue). Cells were then stained with Zombie (NIR) Fixable viability stain-APC-Cy7 and streptavin-AF488, with or without membrane permeabilization. In these experiments, monocytes, T cells and B cells were separately gated to detect surface peptide binding and intracellular peptide penetration.

dendritic cells (DC) [3] = test: DC maturation, surface markers by flow cytometry; assay type: cell-based, human; settings: 200 μg/ml, 48 hr
Procedure: In some experiments, to detect surface proteins on cultured DC, cells were harvested at day 6 and re-suspended at 1×10^5/ml in macrophage serum free medium (Thermo Fisher Scientific, cat #12065074). Cells were incubated for 1 hr on ice with fluorescent antibodies specific for CD14 (PE), CD1a (PE), or isotype-matched IgG. Cells were washed and analysed by flow cytometry. The harvested DC were also resuspended in the medium at 5×10^4/ml and cultured for 48 hr with LPS (0.5 μg/ml), P2M6 (200 μg/ml) or, as a control, PBS. Cells were then incubated with fluorescently tagged antibodies specific for MHC class II, CD40, CD80, CD83, CD86, and corresponding isotype controls. Cells were analysed by flow cytometry.
NCL-P2 was previously shown to activate DC as judged by TNFα induction [Wu, S., et al., Cell Death Dis 12: 477 (2021)]. Whether P2+G effectively activates these cells into mature antigen-presenting cells (APC) for effective T cell activation has not been examined. To this end, DC were stimulated for 48 hr with P2+G (200 μg/ml) or, as a positive control, LPS (0.5 μg/ml). As a negative control, DC were cultured without specific stimulation by adding equivalent volumes of PBS. DC were cultured from monocytes and were typically CD14^lo/− CD1a^hi [Cao, W., et al., Blood 107: 2777-2785 (2006)]. Cells were examined for surface expression of MHC class II, CD40, CD80, CD83 and CD86.

PBMC [4] = test: PBMC activation, TNFα and IL-1β ELISA; assay type: cell-based, human; settings: PBMC stimulated 24 hr, TNFα in media
dendritic cells (DC) [5] = test: Dendritic cell penetration, confocal microscopy; assay type: cell-based, human
Procedure: DC were harvested and cultured overnight on glass coverslips. The cells were first incubated for 1, 5, 15, 30 or 60 min with P2M6 (200 μg/ml) at 4° C. and then fixed in 4% (w/v) paraformaldehyde (PFA) for 20 min. Cells were permeabilized for 30 min in 0.1% (w/v) saponin and then incubated for 1 hr with streptavidin-AF488 (50 μg/ml). Cells were then mounted for imaging analysis. Alternatively, P2M6 was pre-incubated for 1 hr on ice with streptavidin-AF488 at 50 μg/ml and the peptide-streptavidin complexes were at 1/10 dilution incubated with DC for 1, 5, 15, 30 or 60 min at 4° C. and the cells were, after washing, directly mounted without fixation or permeabilization.
In another experiment set up, DC (2×10^5/ml) were incubated for 1 hr at 4° C. with P2M6 at different concentrations (10, 25, 50, 100, or 200 μg/ml). Cells were fixed and permeabilized to incubate for 1 hr with streptavidin-AF488 (50 μg/ml). Cells were washed and mounted for imaging analysis. Alternatively, Different concentrations of P2M6 ([…]) were pre-incubated for 1 hr on ice with streptavidin-AF488 (500 μg/ml). The preformed complexes were at 1/10 dilutions incubated with DC for 1 hr at 4° C. The cells were, after washing, directly mounted without fixation or permeabilization.
All cells were mounted using the VectaShield mounting medium containing DAPI (Vector Laboratories). Cells were analyzed using the FluoView FV3000 confocal microscope equipped with a 100× oil objective (aperture 1.45) and Cool/SNAP HQ2 image acquisition camera (Olympus). Images were captured with the FV-ASW 1.6b software and analyzed using the Imaris software (Bitplane AG).

dendritic cells (DC) [6] = test: Dendritic cell penetration, confocal microscopy; assay type: cell-based, human; settings: data not shown
red blood cells (RBC) = test: Hemolytic assay; assay type: cell-based, human; settings: 1 hr at 37° C., normalized to Triton X-100
Procedure: Buffy coats were used as a source of red blood cells (RBC). Buffy coat (2 ml) was washed first in 10 ml of 150 mM NaCl and then washed twice in PBS (pH 7.4) by centrifugation for 5 min at 500 g. The cell pellets were resuspended in 10 ml of PBS as RBC stocks. The different peptides were diluted in PBS (100 μg/ml) and, in triplicates, the peptides were added to V-bottom 96-well plates at 10 μl/well. As controls, the same volumes of PBS or 20% (v/v) Triton X-100 were added. RBC were diluted 50 times in PBS and added to the plates at 190 μl/well. After incubation for 1 hr at 37° C., the plates were centrifuged for 5 min at 500 g. The supernatants (100 μl/well) were transferred to flat bottom plates and absorbance was measured at OD405. Data were normalized to the average OD405 readings obtained with 1% (v/v) Triton X-100 and presented as percentage hemolysis.

[7] = tested on: dendritic cells (DC) and macrophages; settings: Wu et al. 2021; cited from earlier work
monocytes = test: Monocyte activation, TNFα and IL-1β ELISA; assay type: cell-based, human
Procedure: Buffy coat fractions were obtained from healthy blood donors at the Singapore Health Sciences Authority, with Institutional ethics approval, and PBMC were isolated using Ficoll-Paque (GE Healthcare). To isolate monocytes, PBMC were re-suspended to 1×10^7 cells/ml in the RPMI medium contained 5% (v/v) BCS and incubated for 1 hr in T75 flasks (20 ml/flask). Monocytes that adhered were harvested. To culture macrophages and DC [Cao, W., et al., Blood 107: 2777-2785, (2006), incorporated herein by reference], monocytes were resuspended to 1×10^6 cells/ml and cultured in 6-well plates (2 ml/well). Macrophages were cultured by adding M-CSF to 20 ng/ml and DC were cultured with 20 ng/ml GM-CSF and 40 ng/ml IL-4. M-CSF, GM-CSF and IL-4 were obtained from R&D Systems (Mineapolis, Minn.). Cells were cultured for 6 days with half of the media being replenished every two days.
[…] Where TLR ligands were used to stimulate these cells, they were added to the media: LPS (500 ng/ml for DC and macrophages and 10 ng/ml for PMBC and monocytes, InvivoGen), flagellin (1 μg/ml, InvivoGen), lipoteichic acid (LTA, 10 μg/ml). Cell activation was determined by measuring TNFα and IL-1β in the culture media using ELISA kits (Invitrogen).

TLR2 = TLR2 (Homo sapiens, UniProt O60603); test: TLR2 binding assay (ELISA plate); set-up: purchased R&D Systems; settings: TLR2 coated 2 μg/ml
Sequence of TLR2 (O60603 21-590 limits assumed): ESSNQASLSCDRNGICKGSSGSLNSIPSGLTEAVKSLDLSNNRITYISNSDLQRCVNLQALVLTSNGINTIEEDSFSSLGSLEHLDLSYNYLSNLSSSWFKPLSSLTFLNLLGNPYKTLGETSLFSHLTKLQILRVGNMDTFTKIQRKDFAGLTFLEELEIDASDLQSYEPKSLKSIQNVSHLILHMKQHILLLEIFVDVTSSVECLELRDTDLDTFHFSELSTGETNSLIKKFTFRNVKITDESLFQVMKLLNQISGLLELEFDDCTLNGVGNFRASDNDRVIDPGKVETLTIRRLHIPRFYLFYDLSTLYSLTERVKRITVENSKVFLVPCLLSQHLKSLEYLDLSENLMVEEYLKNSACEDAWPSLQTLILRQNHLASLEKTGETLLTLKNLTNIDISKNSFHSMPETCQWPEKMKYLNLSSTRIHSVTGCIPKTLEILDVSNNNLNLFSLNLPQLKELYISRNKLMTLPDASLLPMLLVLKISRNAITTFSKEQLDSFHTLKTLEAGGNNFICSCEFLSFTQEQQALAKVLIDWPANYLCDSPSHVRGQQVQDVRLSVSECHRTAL

GGFGGRGGGRGGRGGFGGRGGRGGFGGRGGFRGGRGG (NCL-P2+G)
T cell proliferation / activation induced by peptide-loaded DC [1]: might not induce significant T cell activation to itself
CPP activity compared with NCL-P2 (PBMC [2]; 1 hr at 4° C.): slightly higher CPP activity
CPP activity compared with NCL-P2 (PBMC [2]; 1 hr at 4° C., listed as P2+G): slightly increased their CPP activities
DC maturation (MHC class II, CD40, CD80, CD83, CD86) (dendritic cells (DC) [3]): effectively activated DC maturation
adjuvant (alarmin) activity compared with NCL-P2 (PBMC [4]): significantly higher alarmin activity
increase in adjuvant (alarmin) activity compared with NCL-P2 (PBMC [4]): 3 fold
carrying cargo protein streptavidin into DC cytoplasm (dendritic cells (DC) [5]): can carry cargo proteins across the cell membrane into the cytoplasm; also recorded: carry a cargo protein streptavidin into the DC cytoplasm
time of incubation within which DC were penetrated (dendritic cells (DC) [5]; 200 μg/ml, 4° C.): ≤ 1 min
DC penetration over time (dendritic cells (DC) [5]; 1, 5, 15, 30 and 60 min, 4° C.): increased progressively from 5 to 60 min
DC penetration at 10 μg/ml of P2+G (dendritic cells (DC) [5]; 1 hr at 4° C.): not detectable; also recorded: no detectable DC penetration
DC penetration at 25 μg/ml of P2+G (dendritic cells (DC) [5]; 1 hr at 4° C.): low level of DC penetration
time to saturation of DC penetration (dendritic cells (DC) [5]; P2+G 200 μg/ml, on ice): 30 min
intracellular localisation in DC (dendritic cells (DC) [5]; confocal microscopy): penetrated into the nucleoli faster than it penetrated into the cytoplasm
change of intracellular pool in DC with increasing P2+G concentration (dendritic cells (DC) [5]; free peptide 25 to 200 μg/ml, streptavidin-bound 10 to 100 μg/ml): increased following increasing concentrations
carrying ovalbumin into DC cytoplasm (dendritic cells (DC) [6]): carried ovalbumin into DC cytoplasm

CC[C@H](C)[C@H](NC(=O)[C@H](CCCNC(=N)N)NC(=O)[C@H](CCCNC(=N)N)NC(=O)[C@H](CCCNC(=N)N)NC(=O)[C@H](CC(C)C)NC(=O)[C@@H](NC(=O)[C@@H](NC(=O)[C@H](CC(C)C)NC(=O)[C@@H](N)CC(C)C)[C@@H](C)CC)[C@@H](C)CC)C(=O)N[C@@H](CCCNC(=N)N)C(=O)N[C@@H](CCCCN)C(=O)N[C@@H](CCC(N)=O)C(=O)N[C@@H](C)C(=O)N[C@@H](Cc1c[nH]cn1)C(=O)N[C@@H](C)C(=O)N[C@@H](Cc1c[nH]cn1)C(=O)N[C@@H](CO)C(=O)N[C@@H](CCCCN)C(=O)O [CPP5, LLIILRRRIRKQAHAHSK] (H-LLIILRRRIRKQAHAHSK-OH)
haemolysis (red blood cells (RBC)): clearly haemolytic

GGFGGRGGGRGGRGGFGGRGRGGFGGRGGFRGGRGG (NCL-P2)
intracellular pool / cell penetration (CPP activity) in PBMC (PBMC [2]; 1 hr at 4° C., fixed/permeabilized, streptavidin-AF488): accumulate intracellular pools
cell surface binding of peptide at 37° C. (PBMC [2]): the majority of monocytes and smaller fractions of B and T cells
cell surface binding of peptide at 37° C. (PBMC [2]; listed as P2): surface binding was only prominent on PBMC and monocytes
intracellular peptide at 4° C. (PBMC [2]; monocytes): similarly high intracellular pools of the peptide
intracellular peptide at 4° C. (PBMC [2]; monocytes, listed as P2): similarly high levels of intracellular P2 peptide irrespective of the temperature of incubation
surface-bound peptide at 4° C. (PBMC [2]; monocytes, compared with 37° C.): increased significantly
intracellular peptide at 37° C. (PBMC [2]): much higher level of the peptide was detected in all PBMC
intracellular peptide at 37° C. (PBMC [2]; listed as P2): similarly high levels of intracellular P2 peptide irrespective of the temperature of incubation
DC activation judged by TNFα induction [7]: activate DC
alarmin activity compared with NCL-P1 (monocytes; monocytes): stronger alarmin activity than NCL-P1
cytokine induction, soluble versus coated (immobilized) form (monocytes; monocytes, 24 hr): induced more cytokines than immobilized peptides
cytokines induced by plate-coated peptide compared with NCL-P1 (monocytes; monocytes, peptides coated on plates): induced more cytokines than NCL-P1
TNFα induced relative to NCL-P1 (monocytes; monocytes, soluble peptide 40 μg/ml): approximately 10 fold
TNFα induction from monocytes (7 NCL peptides) (monocytes; peptides 50 or 200 μg/ml, 24 hr): induced TNFα
TNFα induction from monocytes at lower concentrations (monocytes; soluble peptide 10 and 20 μg/ml): induced little TNFα
TNFα induction from monocytes at higher concentrations (monocytes; soluble peptide 80 and 160 μg/ml): strongly induced TNFα production
concentration at which saturated TLR2 binding was reached (TLR2): 3.2 µg/mL
peptide binding to coated TLR2 (TLR2; biotin peptides at increasing concentrations): dose-dependent and saturable binding to TLR2
